In ChEMBL document CHEMBL1134199, “Peptoids as endothelin receptor antagonists” (Bioorg Med Chem Lett, 2001):

Key:
[1] = molecular target: T1, Endothelin receptor type B (Sus scrofa, UniProt P35463); test: Ability to bind with Endothelin B receptor competitively in the presence of (125 I) endothelin using receptor binding assay.
T1 sequence (P35463 whole entry): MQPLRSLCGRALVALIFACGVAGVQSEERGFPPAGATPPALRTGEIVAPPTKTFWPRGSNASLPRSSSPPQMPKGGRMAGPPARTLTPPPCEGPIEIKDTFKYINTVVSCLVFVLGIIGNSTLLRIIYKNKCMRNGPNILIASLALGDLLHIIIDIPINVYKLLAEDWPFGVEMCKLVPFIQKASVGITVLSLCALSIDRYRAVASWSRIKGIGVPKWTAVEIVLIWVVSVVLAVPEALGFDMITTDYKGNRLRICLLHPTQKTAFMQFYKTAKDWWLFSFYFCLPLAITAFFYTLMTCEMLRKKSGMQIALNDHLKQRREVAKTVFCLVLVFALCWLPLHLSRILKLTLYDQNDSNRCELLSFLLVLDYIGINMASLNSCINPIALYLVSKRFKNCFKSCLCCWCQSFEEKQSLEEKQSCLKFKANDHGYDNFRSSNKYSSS

Endothelin-1 receptor = molecular target: T2, Endothelin-1 receptor (Sus scrofa, UniProt Q29010); test: Ability to bind with Endothelin A receptor competitively in the presence of (125 I) endothelin using receptor binding assay.
T2 sequence (Q29010 whole entry): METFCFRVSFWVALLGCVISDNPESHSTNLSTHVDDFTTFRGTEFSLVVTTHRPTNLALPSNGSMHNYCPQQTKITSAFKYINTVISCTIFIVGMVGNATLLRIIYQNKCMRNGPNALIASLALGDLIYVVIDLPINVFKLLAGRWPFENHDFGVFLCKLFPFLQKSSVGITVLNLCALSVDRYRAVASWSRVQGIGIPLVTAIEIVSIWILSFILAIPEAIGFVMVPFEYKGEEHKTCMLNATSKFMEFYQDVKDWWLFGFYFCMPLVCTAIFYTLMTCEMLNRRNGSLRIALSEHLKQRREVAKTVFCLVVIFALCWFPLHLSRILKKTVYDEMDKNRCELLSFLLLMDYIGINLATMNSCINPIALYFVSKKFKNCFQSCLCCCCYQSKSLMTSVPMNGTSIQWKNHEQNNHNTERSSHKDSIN

Compound | IC50 [1] [µM] | IC50 (Endothelin-1 receptor) [µM]
COc1ccc(CN(Cc2cc3c(cc2Cl)OCO3)C(Cc2ccc(O)cc2)C(=O)O)cc1 (stereo not given) | 5.5 | > 100
COc1ccc(CN(C(=O)c2ccc(OC)cc2)C(Cc2c[nH]c3ccccc23)C(=O)O)cc1 (stereo not given) | > 100 | > 100
COc1ccc(CC(C(=O)O)N(Cc2ccc(OC)cc2)Cc2cc(OC)c(OC)c(OC)c2)cc1 (stereo not given) | 19 | 
COc1ccc(CN(Cc2cc(OC)c(OC)c(OC)c2)C(Cc2c[nH]c3ccccc23)C(=O)O)cc1 (stereo not given) | 35 | 42
O=C(O)C(Cc1ccc(O)cc1)N(Cc1cc2c(cc1Cl)OCO2)C(=O)/C=C/c1ccc2c(c1)OCO2 (stereo not given) | 66 | 38
COc1ccc(CN(Cc2cc(OC)cc(OC)c2)C(Cc2ccc(O)cc2)C(=O)O)cc1 (stereo not given) |  | 36

Continued, values first:

IC50 [1] [µM] | IC50 (Endothelin-1 receptor) [µM] | Compound
49 | 30 | COc1ccc(C(=O)N(Cc2cc3c(cc2Cl)OCO3)C(Cc2c[nH]c3ccccc23)C(=O)O)cc1 (stereo not given)
6.7 | 16.3 | O=C(O)C(Cc1c[nH]c2ccccc12)N(Cc1cc2c(cc1Cl)OCO2)Cc1cc2c(cc1Cl)OCO2 (stereo not given)
 | 31 | COc1cccc(CN(C(=O)/C=C/c2ccc3c(c2)OCO3)C(Cc2ccc(O)cc2)C(=O)O)c1 (stereo not given)
12.6 | 6 | COc1ccc(CN(C(=O)/C=C/c2ccc3c(c2)OCO3)C(Cc2ccc(O)cc2)C(=O)O)cc1 (stereo not given)
0.66 | 8.9 | O=C(O)C(Cc1c[nH]c2ccccc12)N(Cc1cc2c(cc1Cl)OCO2)C(=O)/C=C/c1ccc2c(c1)OCO2 (stereo not given)
0.47 | 10 | COc1ccc(CN(C(=O)/C=C/c2ccc3c(c2)OCO3)C(Cc2c[nH]c3ccccc23)C(=O)O)cc1 (stereo not given)
6.4 | 27 | COc1ccc(CN(C(=O)/C=C/c2ccc3c(c2)OCO3)C(Cc2ccccc2)C(=O)O)cc1 (stereo not given)
55 | 21.3 | CCOC(=O)CN(Cc1cc2c(cc1Cl)OCO2)C(Cc1ccc(O)cc1)C(=O)O (stereo not given)
